Experimental findings from patent publication US12281323B2, “Treatment for restoring ureagenesis in carbamoyl phosphate synthetase 1 deficiency” (The Regents of the University of California, priority 2019, dated 2025) are described below.

This assay has as its system conditional CPS1 knock out mouse model. In words: sAAV efficacy in vivo in conditional CPS1 knock out mouse model (floxed Cps1 removed by AAV-Cre). The conditions noted are these: sAAV-treated mice additionally treated with n-carglumic acid. The text has this:
To illustrate the ability of sAAVs to treat CPS1 deficiency, sAAVs encoding human codon optimized CPS1 (hcoCPS1) driven by the constitutive CAG promoter were generated and tested in a conditional CPS1 knock out mouse model (see, e.g. Khoja et al., Molecular Genetics and Metabolism. 2018 Aug. 1; 124(4):243-253). […] Currently, there is no effective therapy for human patients with CPS1 disorders. Our data from this gene therapy model in mice having knocked out endogenous CPS1 expression provides evidence that this treatment can address this unmet need for these patients.
In illustrative embodiments of the invention, to test sAAV efficacy in vivo, a conditional CPS1 knock out mouse model was used. These mice contain biallelic floxed Cps1 which is removed by treatment with an AAV expressing Cre recombinase (AAV-Cre). […] Treatment with the small molecule n-carglumic acid, an analog of NAG, the allosteric activator of CPS1, further extended lifespan (all mice >120 days; p<0.01) and maintained near normal plasma ammonia (baseline: 138.87 μM±86.5; post-treatment: 217.8 μM±69.9; p=0.15).

Regarding `NC(=O)N[C@@H](CCC(=O)O)C(=O)O` [n-carglumic acid], the lifespan (all mice, p<0.01) was > 120 days. Moreover, the plasma ammonia post-treatment (±69.9, baseline 138.87 μM±86.5, p=0.15) was 217.8 µM.
